# Assay results taken from paper PMC8480759, “Inhibitors of histone deacetylase 6 based on a novel 3-hydroxy-isoxazole zinc binding group” (Journal of Enzyme Inhibition and Medicinal Chemistry, 2021).
# Legend:
# HDAC6 [1] = target: T1, HDAC6 (Homo sapiens, UniProt Q9UBN7); assay: In vitro HDAC6 fluorogenic enzymatic assay; assay type: biochemical; set-up: purchased BPS Bioscience #50076 (Fluorogenic Assay Kit); details: recombinant human HDAC6; dose-response 300 µM to 135 nM
# T1 sequence (Q9UBN7 1-1215): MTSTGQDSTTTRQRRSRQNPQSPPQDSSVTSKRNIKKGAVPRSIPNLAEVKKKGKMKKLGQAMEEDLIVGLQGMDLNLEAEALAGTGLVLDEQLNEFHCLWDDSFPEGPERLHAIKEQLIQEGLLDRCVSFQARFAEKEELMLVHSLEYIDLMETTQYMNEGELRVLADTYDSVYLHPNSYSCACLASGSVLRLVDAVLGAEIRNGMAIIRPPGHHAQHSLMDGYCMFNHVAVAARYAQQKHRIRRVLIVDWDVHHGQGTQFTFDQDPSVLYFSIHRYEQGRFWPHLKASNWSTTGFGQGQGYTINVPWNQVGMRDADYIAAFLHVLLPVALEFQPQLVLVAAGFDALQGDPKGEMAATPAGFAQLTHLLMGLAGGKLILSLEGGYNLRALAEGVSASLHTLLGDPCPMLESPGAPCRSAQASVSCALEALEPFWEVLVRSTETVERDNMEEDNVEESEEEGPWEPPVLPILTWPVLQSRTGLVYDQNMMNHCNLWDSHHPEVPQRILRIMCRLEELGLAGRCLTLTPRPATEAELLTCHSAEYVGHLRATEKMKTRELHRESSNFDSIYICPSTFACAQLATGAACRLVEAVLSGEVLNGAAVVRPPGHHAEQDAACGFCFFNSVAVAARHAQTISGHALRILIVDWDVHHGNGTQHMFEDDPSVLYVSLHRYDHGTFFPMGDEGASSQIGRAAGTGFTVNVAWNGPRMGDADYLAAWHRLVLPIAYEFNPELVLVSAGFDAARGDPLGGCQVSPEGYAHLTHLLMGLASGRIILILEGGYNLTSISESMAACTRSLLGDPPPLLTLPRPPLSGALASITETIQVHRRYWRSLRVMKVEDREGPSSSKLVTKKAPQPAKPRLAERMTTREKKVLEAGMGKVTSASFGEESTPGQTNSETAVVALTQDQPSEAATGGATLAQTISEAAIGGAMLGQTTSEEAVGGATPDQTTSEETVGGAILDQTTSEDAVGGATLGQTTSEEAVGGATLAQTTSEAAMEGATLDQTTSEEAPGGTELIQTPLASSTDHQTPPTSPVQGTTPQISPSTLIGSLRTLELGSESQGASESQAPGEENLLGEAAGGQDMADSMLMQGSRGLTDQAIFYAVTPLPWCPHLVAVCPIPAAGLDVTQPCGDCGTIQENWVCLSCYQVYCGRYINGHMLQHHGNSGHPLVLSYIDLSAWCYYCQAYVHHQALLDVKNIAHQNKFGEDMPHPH
# [2] = system: acetylation levels of α-tubulin (HDAC6 target) in DU145 cells; assay: Western blot of α-tubulin acetylation in DU145 cells; assay type: cell-based, human; details: 24 h, 10 µM
# Experimental: The results corroborate the inhibitory activity of 17, 23, 25 and 27 at concentrations lower than 10 µM. […] HDACs contribution to CRPC is known[20] and the possibility to arrest CRPC proliferation by acting on HDAC targets is expanding in the scientific literature[21]^,[22]. After administration of the selected compounds for 24 h at 10 µM concentration, the effect on the acetylation levels of histone H3 and α-tubulin (respectively, HDAC1 and HDAC6 targets) was investigated. […] Lastly, in the same cell line, the anti-proliferative effect was measured in dose and time dependent manner (Figure S4).
# Figure S3. Western blotting analysis of the tested and reference compounds SAHA and Tubastatin A on acetylation levels of histone H3 and α-tubulin in DU145 cells. GAPDH and H4 were used as a loading control. Densitometric values were analyzed using ImageJ Software and are reported on the top of bands as the ratio between loading control and acetylated target. […]
# The resulting mixtures were incubated at 37 °C for 45min , after which 25 µL of 2X HDAC developer were added. Following incubation at RT for 15 min, fluorescence intensity was measured using a microplate reader (GloMax Discover System, Promega) at 365nm excitation and […] emission wavelengths.
# IC50 values were calculated using the GraphPad Prism 6 program based on a log(inhibitor) vs response (variable slope) sigmoidal equation. […]
# HDAC6 [3] = target: T1, HDAC6; assay: HDAC6 assay with acetylated p53 peptide (residues 379–382, RHKKAc-AMC) as substrate; assay type: biochemical
Compound,IC50 (HDAC6 [1]),effect on acetylation of α-tubulin [2],concentration showing inhibitory activity on HDAC6 (HDAC6 [3])
Oc1cc(-c2ccc3c(c2)OCO3)on1 [Compound 25],1500 nM,increased,below 10 µM
Oc1cc(-c2ccc(NCc3ccccc3)cc2)on1 [Compound 23],700 nM,increased,below 10 µM
